Assay results published in patent US7601739B2, “Compounds having antiestrogenic and tissue selective estrogenic properties, and compounds with anti-androgenic properties for treatment of prostate cancer and androgen receptor dependent diseases” (Virgina Commonwealth University, priority 2006, dated 2009).

Experiments:
[1] = target: T1, hERα (Homo sapiens, UniProt P03372); experiment: Transient transfection reporter assay for hERα in MCF-7 cells; type: cell-based; set-up: Relative Estrogenic Activity: dose or concentration left out as unconfirmed; conditions: for Relative Estrogenic Activity: MCF-7 cells transfected with hERα, DMSO set as 1; for Relative Antiestrogenic Activity at 2.5 μM: with 1 nM estradiol, 1 nM E2 used as reference (1); for estrogenic effect: compared with DMSO and tamoxifen
T1 construct: mammalian expression plasmid containing full length human ER cDNA, pCMV-hER; expressed in transfected cells; host or cells: MCF-7 human breast cancer cells
T1 sequence (P03372 1-595): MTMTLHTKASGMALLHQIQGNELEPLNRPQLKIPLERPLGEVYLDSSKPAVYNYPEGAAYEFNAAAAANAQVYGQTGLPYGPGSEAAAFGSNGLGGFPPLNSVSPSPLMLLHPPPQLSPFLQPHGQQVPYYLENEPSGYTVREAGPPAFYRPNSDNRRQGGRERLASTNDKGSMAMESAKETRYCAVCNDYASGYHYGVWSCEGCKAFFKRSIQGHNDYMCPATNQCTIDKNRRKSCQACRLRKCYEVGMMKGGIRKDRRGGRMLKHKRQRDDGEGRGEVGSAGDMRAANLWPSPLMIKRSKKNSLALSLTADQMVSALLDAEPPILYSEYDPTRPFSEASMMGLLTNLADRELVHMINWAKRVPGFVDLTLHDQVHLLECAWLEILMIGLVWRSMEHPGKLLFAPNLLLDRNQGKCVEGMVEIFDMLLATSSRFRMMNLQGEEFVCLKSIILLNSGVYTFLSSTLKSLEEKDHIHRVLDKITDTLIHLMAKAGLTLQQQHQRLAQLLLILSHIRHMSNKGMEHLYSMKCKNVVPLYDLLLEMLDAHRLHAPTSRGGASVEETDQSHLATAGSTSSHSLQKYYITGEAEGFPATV
Procedure: For the transient transfection reporter assays, the cells were plated in triplicate in 12-well plates at a density of 300000 cells/well in the phenol red-free DMEM (GIBCO/BRL, Grand Island, N.Y.) supplemented with 10% charcoal-stripped fetal bovine serum (Hyclone, Logan, Utah), Penicillin (100 unit/ml)/Streptomycin ([…]), 2 mML-glutamine and 1 mM sodium Pyruvate. 24 hrs later, the cells were transfected with three plasmids by using Superfect transfection kit (Qiagen, Valencia, Calif.). For the detection of hER activity, cells were transfected with 2 g hER expression plasmid (pCMV-ER ), 6 g luciferase reporter plasmid containing estrogen receptor response element (PGL-TATA-Luc), and 600 ng normalization control, β-galactosidase reporter plasmid (pCMV ). For the detection of hER activity, cells were transfected with 3 ug hER expression plasmid (pcDNA3.1-hER), 6 g luciferase reporter plasmid containing estrogen receptor response element (PGL-TATA-Luc), and 600 ng pCMV. For determining the influence of ER's major coactivator in breast, AIB 1, 2 g pcDNA3.1-AIB1 was added into the transfection plasmid solution mentioned previously.
The transfected cells were rinsed with PBS and treated with various concentrations of test molecules and one […] (vehicle, DMSO or methanol) in phenol red-free culture medium. After incubation for further 24 hrs, the cells were washed with PBS and lysed with lysis buffer (Pierce, Rockford, Ill.). The lysate was used to determine the luciferase activity for ER's activity and the β-galactosidase activity for the normalization of transfection efficiency.
For the luciferase activity assay, 20 μl of lysate and 100 μl luciferase assay buffer (Promega, Madison, Wis.) were added into a well of 96-well plate. The luminescence was detected by using luminescence microplate reader, LumiCount (Packard, Boston, Mass.). For the β-galactosidase activity assay, […] β-galactosidase assay buffer (Clontech, Palo Alto, Calif.) were added into a well of 96-well plate. The β-galactosidase activity was measured as luminescence strength by using luminescence microplate reader, LumiCount (Packard, Boston, Mass.). The normalized reporter activity was calculated by the luciferase activity divided by that of β-galactosidase.
The transient transfection reporter assay was used to determine the estrogenic or antiestrogenic activity of tested compounds in employed human breast cancer cells, MCF-7 cells that are cotransfected with hERα expression and reporter plasmids. […] […] The estrogenic (antiestrogenic) activity was determined by dividing the luciferase activity by the β-galactosidase activity. To determine the influence of estrogen receptor's major coactivator in breast cancer, AIB1, for the compounds' estrogenic activity, the expression vector of AIB1 was additionally cotransfected with the plasmids mentioned above.

[2] = tested on: MCF-7 cells; experiment: hERα positive breast cancer cell proliferation assay; type: cell-based, human; conditions: for activity at 5 µM: Homo sapiens, MCF7, 72 h, MCF-7 cells, DMSO = 1, read-out: Relative Cancer Cell Proliferation Effects at 5 μM
Procedure: (§1) MCF-7 or MDA-MB-231 cells were inoculated into 12-well culture plates at 10000 cells in 2 ml maintained medium per well. Cells were allowed to attach to the bottom for 24 hrs incubation, then the seeding medium was removed and replaced by the experimental medium (phenol red-free DMEM supplemented with 5% charcoal-stripped fetal bovine serum and Penicillin (100 unit/ml)/Streptomycin ([…])). After 24 hr incubation, the test molecules dissolved in DMSO were added in the wells. […] The culture was continued for 3 days and the medium and tested compounds were replaced every two days. The final cell numbers were estimated with CellTiter proliferation assay kit (Promega, Madison, Wis.) by measuring the absorbance at 570 nm, which is directly proportional to the number of living cells in the culture.
MCF-7 cell line was used to perform this assay and the description of this assay as mentioned above. […] DMSO was used as reference.

[3] = tested on: hER; experiment: Fluorescence-based competitive binding assay for hER (displacement of fluormone ES2); set-up: species or system human; conditions: RBA = IC50 of tamoxifen/IC50 of test molecule; tamoxifen set at 1
Procedure: The estrogen receptor competitor assay kits (Panvera, Madison, Wis.) were used to determine the ability of test molecules to displace the fluormone, ES2, from hER -ES2 or hER -ES2 complex. Serial dilutions of each test molecule were prepared in methanol or DMSO. The recombinant hER or hER (7 nM) was preincubated with ES2 (1 nM) in screening buffer. After the preincubation, the test molecules and ER-ES2 complex solution were added into the 96-well microplate to produce a final volume of 100 μl per well. The reaction was incubated at room temperature for 1 hr and the polarization values were measured by using fluorescence microplate reader, Polarion (Tecan, Research Triangle Park, N.C.) with excitation wavelength 495 nm and emission wavelength 535 nm. The polarization value versus test molecule concentration curves was analyzed by graphfit software to generate IC50 values.
In this assay, recombinant hER and the commercial synthetic estrogen, ES2 containing fluorescence polarization property, are used. This assay is a homogenous assay. When the assay solution only contains ES2, the solution exerts weak fluorescence polarization property due to the quick rotation of free ES2 molecule. […] Addition of the antiestrogen to the ES2/hER displaces ES2 from hER and results in the whole solution exerting less fluorescence polarization property than the solution without antiestrogen.

[4] = tested on: MDA-MB-231 cells; experiment: hER negative breast cancer cell proliferation assay; type: cell-based, human; conditions: hER negative cell line
Procedure: as §1
In this assay, MDA-MB-231 breast cancer cell line, a hER negative cell line, was used. DMSO was used as reference.

Compound	Relative Estrogenic Activity [1]	Relative Antiestrogenic Activity at 2.5 μM [1]	activity at 5 µM [2] [%]	Relative Binding Affinity [3]	antiestrogenic / inhibition activity ([1]; against 1 nM estrogen)	inhibition effects against MCF-7 cell proliferation [2]	estrogenic effect ([1]; MCF-7 cells, hERα)	inhibition of MCF-7 cell proliferation ([2]; relative to DMSO) [%]	proliferation effects against MDA-MB-231 cells (FIG. 6, words) [4]	antiestrogenic activity against various concentrations of estrogen (FIG. 4) ([1]; MCF-7 cells, hERα)	stimulation of growth of DMSO-treated MCF-7 cells ([2]; 2 nM estrogen) [%]
CCCCNC(=O)CCCCCCCCCCOCC1Cc2ccccc2CN1C(=O)Cc1cccc(F)c1 (stereo not shown) [Compound 12, 11-{2-[2-(3-Fluoro-phenyl)-acetyl]-1,2,3,4-tetrahydro-isoquinolin-3-ylmethoxy]-undecanoic acid butylamide]	1.68	1.01	120	0.267							
CCCCNC(=O)CCCCCCCCCCOCC1Cc2ccccc2CN1C(=O)c1ccc(C)cc1 (stereo not shown) [Compound 9, 11-[2-(4-Methyl-benzoyl)-1,2,3,4-tetrahydro-isoquinolin-3-ylmethoxy]-undecanoic acid butylamide]	1.72	1.34	101	0.132							
CCCCNC(=O)CCCCCCCCCCOCC1Cc2ccccc2CN1C(=O)c1cccc(C)c1 (stereo not shown) [Compound 8, 11-[2-(3-Methyl-benzoyl)-1,2,3,4tetrahydro-isoquinolin-3-ylmethoxy]-undecanoic acid butylanide]	1.32	0.75	84	0.156	moderate antiestrogenic effect	slight inhibition effects					
CCCCNC(=O)CCCCCCCCCCOCC1Cc2ccccc2CN1C(=O)c1ccc(OC)cc1 (stereo not shown) [Compound 5]	1.06	1.64	98	0.14			do not exert any estrogenic effects				
CCCCCCCCNC(=O)CCCCCCCCCCOCC1Cc2ccccc2CN1C(=O)c1cccc(F)c1 (stereo not shown) [Compound 11, 11-[2-(3-Fluoro-benzoyl)-1,2,3,4-tetrahydro-isoquinolin-3-ylmethoxy]-undecanoic acid octylamide]	0.83	1.11	100	0.177			do not exert any estrogenic effects				
CC/C(=C(\c1ccccc1)c1ccc(OCCN(C)C)cc1)c1ccccc1 [Tamoxifen, reference compound]			42					58	moderate anti-proliferation effects		
CCCCNC(=O)CCCCCCCCCCOCC1Cc2ccccc2CN1C(=O)c1cccc(Cl)c1 (stereo not shown) [Compound 10, 11-[2-(3-Chloro-benzoyl)-1,2,3,4tetrahydro-isoquinolin-3-ylmethoxy]-undecanoic acid butylamide]	0.68	0.83	86	0.156		slight inhibition effects	do not exert any estrogenic effects				
CCCCNC(=O)CCCCCCCCCCOCC1Cc2ccccc2CN1C(=O)c1ccccc1F (stereo not shown) [Compound 1]	1.02	1.17	106	0.225			do not exert any estrogenic effects			can antagonize estrogen's action in a dose dependent manner	
CCCCNC(=O)CCCCCCCCCCOCC1Cc2ccccc2CN1C(=O)c1ccc(F)cc1 (stereo not shown) [Compound 3]	1.09	0.93	91	0.264		slight inhibition effects	do not exert any estrogenic effects				
C[C@]12CC[C@@H]3c4ccc(O)cc4CC[C@H]3[C@@H]1CC[C@@H]2O [Compound E2, estradiol, reference compound]											150
